Measurements: paper PMC10534827 (Pharmaceuticals, 2023)

Columns and labels:
[1] = tested on: SH-SY5Y cells; test: MTT cytotoxicity, SH-SY5Y; format: cell-based, human; details: Homo sapiens, SH-SY5Y; MTT, 72 h exposure; read-out: SH-SY5Y IC50
[2] = DPPH radical scavenging activity; details: 300 μL of 5 mM compound in MeOH, 30 min, 517 nm
Description: The DPPH (2,2-diphenyl-1-picryl-hydrazyl-hydrate) free radical scavenging activity method is based on the neutralization of the DPPH radical by an antioxidant.
Free radical scavenging activity was measured using DPPH method [69, 70] with slight modification. Here, 300 μL of 5 mM solutions of tested compounds in MeOH were added to 2 mL methanolic solution of DPPH (2 mg/mL). […] Results were evaluated as percentage scavenging of radical:DPPH radical scavenging activity (%) = ((Abscontr. − Abssample)/Abscontr.) ×100, where Abscontr. is the absorbance of DPPH radical with 300 μL MeOH, Abssample is the absorbance of DPPH radical solution mixed with sample. BHT was used as positive control.

[3] = PAMPA-BBB permeability; format: in vitro ADME; details: for PAMPA BBB −logPe: experimentally measured BBB permeability
Description: At the same time, they needed to fulfill the requirement for good BBB permeation in order to achieve sufficient brain exposure. Although transport across the BBB is quite a complex phenomenon, passive diffusion is still the primary route for exogenous substances to access that target. So, the selected compounds were subjected to an in vitro PAMPA-BBB assay, relying on the capacity of the method in distinguishing the candidates with good BBB passive permeabilities. […].
The blood–brain barrier permeabilities were measured by PAMPA Permeability Analyzer (pIONInc, Billerica, MA, USA). The tested compounds and reference standards were prepared as 10 mM stock solutions in DMSO and further diluted in Prisma HT buffer pH 7.4. The experiment followed the BBB Protocol: 200 μL sample’s aliquots in the donor compartment, Brain Sink Buffer aliquots (200 μL) in the acceptor wells, BBB-1 lipid for coating the permeation membranes, “sandwich” assembly with the acceptor plate on top of the donor one, and incubation at temperature 25 °C for 4 h under humidity control without stirring. For permeability assessment, UV spectra of the blank, reference, donor, and acceptor plates were collected at wavelength 250–500 nm. […]. Samples were analyzed in triplicate and average values were reported. […]. Theophylline, corticosterone, and propranolol HCl were used as reference standards to control the quality and consistency of the BBB permeability experiment.

[4] = Lipid peroxidation in linoleic acid system, FTC method; details: 10 mM compound, 500 nm
Description: The antioxidant activity of studied compounds against lipid peroxidation was measured through ammonium thiocyanate assay as described by Takao et al. [66] with some modifications. […] A 10 μL aliquot of the reaction solution was then added to 200 μL of 70% (v/v) ethanol and 10 μL of 30% (w/v) ammonium thiocyanate. […] Aliquots were assayed every 24 h until the day after the absorbance of the control solution (without compound) reached maximum value. BHT (10 mM) was used as positive control.

[5] = Ferric reducing antioxidant power (FRAP); details: 150 μL of 5 mM compound, 30 min, 593 nm, Trolox equivalent
[6] = target: T1, Acetylcholinesterase from Electrophorus electricus (Electrophorus electricus, UniProt O42275); test: biochemical; format: biochemical; details: for inhibition at 1000 µM: 1 mM solution of the tested compound, read-out: Activity [%] (inhibition percentage of AChE); for SI AChE: IC50(BChE)/IC50(AChE); for IC50: mean ± SD of three experiments, read-out: AChE IC50
T1 construct: purchased Sigma-Aldrich, Hamburg, Germany
T1 sequence (O42275 24-633): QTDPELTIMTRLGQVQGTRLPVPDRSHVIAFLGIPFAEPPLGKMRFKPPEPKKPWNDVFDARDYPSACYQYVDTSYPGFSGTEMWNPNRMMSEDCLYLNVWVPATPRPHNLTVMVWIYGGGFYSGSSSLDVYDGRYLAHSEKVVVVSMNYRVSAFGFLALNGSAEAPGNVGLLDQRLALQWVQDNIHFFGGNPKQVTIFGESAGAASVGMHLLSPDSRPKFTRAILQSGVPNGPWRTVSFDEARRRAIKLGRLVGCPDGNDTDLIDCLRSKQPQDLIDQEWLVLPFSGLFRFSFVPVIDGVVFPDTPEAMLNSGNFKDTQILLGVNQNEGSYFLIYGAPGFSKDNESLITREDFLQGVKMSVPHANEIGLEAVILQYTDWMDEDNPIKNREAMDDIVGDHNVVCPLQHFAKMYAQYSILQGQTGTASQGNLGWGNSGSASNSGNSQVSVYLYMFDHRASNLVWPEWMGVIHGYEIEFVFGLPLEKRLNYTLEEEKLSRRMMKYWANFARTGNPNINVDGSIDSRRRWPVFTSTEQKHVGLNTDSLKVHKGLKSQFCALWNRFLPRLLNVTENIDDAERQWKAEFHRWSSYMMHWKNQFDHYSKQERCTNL
Description: (§1) AChE and BChE inhibitory activity was measured using the microplate assay described by Ellman et al. [68] with the modifications added by López et al. [36]. The compounds were tested at concentrations between 10^−3 and 10^−8 M. First, all compounds were dissolved in 1% DMSO in a concentration of 1 mg/mL.
(§2) Incubation of the plates was performed at room temperature for 30 min. Then, 100 μL of substrate solution were added to start the enzymatic reaction. […] Enzyme activity was calculated as an inhibition percentage compared to an assay including buffer instead of an inhibitor. […] All data were analyzed with the software package Prism 3 (Graph Pad Inc., San Diego, CA, USA).

[7] = target: T2, butyrylcholinesterase from equine serum (Equus caballus, UniProt P81908); test: biochemical; details: for inhibition at 1000 µM: 1 mM solution of the tested compound, read-out: Activity [%] (inhibition percentage of BChE); for IC50: mean ± SD of three experiments, read-out: BChE IC50; for SI BChE: IC50(AChE)/IC50(BChE)
T2 construct: butyrylcholinesterase from equine serum; purchased Sigma-Aldrich, Hamburg, Germany; host or cells: equine serum
T2 sequence (P81908 whole entry): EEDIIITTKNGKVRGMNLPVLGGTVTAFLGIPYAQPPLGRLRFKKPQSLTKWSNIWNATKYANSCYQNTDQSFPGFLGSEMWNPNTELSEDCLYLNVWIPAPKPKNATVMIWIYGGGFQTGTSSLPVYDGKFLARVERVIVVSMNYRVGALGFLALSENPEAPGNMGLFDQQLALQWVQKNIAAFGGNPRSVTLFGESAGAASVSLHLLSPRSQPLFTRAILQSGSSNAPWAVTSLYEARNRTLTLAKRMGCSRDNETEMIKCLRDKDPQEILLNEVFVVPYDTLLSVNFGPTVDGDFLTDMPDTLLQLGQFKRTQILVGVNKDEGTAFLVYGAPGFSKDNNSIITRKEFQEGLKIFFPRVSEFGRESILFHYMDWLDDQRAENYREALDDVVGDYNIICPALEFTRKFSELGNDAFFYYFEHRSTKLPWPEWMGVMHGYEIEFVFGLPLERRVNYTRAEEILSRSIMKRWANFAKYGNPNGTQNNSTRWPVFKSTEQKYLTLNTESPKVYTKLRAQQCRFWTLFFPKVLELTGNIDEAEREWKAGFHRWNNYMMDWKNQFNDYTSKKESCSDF
Description: as §1, §2

[8] = ABTS radical scavenging assay; details: 734 nm after 5 min
Description: These compounds were also tested for their antioxidant activities by using the ABTS [2,2′-azinobis (3-ethylbenzothiazoline-6-sulfonic acid)] cation radical decolorization method (Table 4). The BHT [41] was used for comparison. The ABTS cation radical is produced by oxidation of the ABTS molecule with strong oxidizing agents, such as potassium persulfate in water.
For ABTS assay, the procedure followed the method of Arnao et al. [71] with some modifications. […] The working solution was then prepared by mixing the two stock solutions in equal quantities and allowing them to react for 14 h at room temperature in the dark. […] A fresh ABTS solution was prepared for each assay. […] The ABTS scavenging capacity of the compound was calculated as follows:ABTS radical scavenging activity (%) = ((Abscontr. − Abssample)/Abscontr.) ×100, where Abscontr. is the absorbance of DPPH radical with 300 μL MeOH, Abssample is the absorbance of DPPH radical solution mixed with the sample. […] BHT was used as positive control.

[9] = tested on: Neuro-2a cells; test: MTT cytotoxicity, Neuro-2a; format: cell-based, murine; details: Mus musculus, N2a; MTT, 72 h exposure; read-out: Neuro-2a IC50
[10] = tested on: CCL-1 cells; test: MTT cytotoxicity, CCL-1 normal fibroblasts; format: cell-based, murine; details: Mus musculus, Fibroblast; MTT, 72 h exposure; read-out: CCL-1 IC50

Structure (SMILES) | IC50 [1] | DPPH Activity [2] | BBB permeability class ([3]; PAMPA-BBB) | PAMPA BBB −logPe [3] | Absorbance Day 1 [4] | Absorbance Day 2 [4] | Absorbance Day 3 [4] | Absorbance Day 4 [4] | Absorbance Day 5 [4] | FRAP [5] | inhibition at 1000 µM [6] | SI AChE [6] | IC50 [6] | inhibition at 1000 µM [7] | IC50 [7] | ABTS Activity [8] | IC50 [8] | IC50 [9] | IC50 [10] | SI BChE [7]
O=C(N/N=C/C1CCN(Cc2ccccc2)CC1)c1ccc(O)cc1O [3b, N’-[(E)-(1-benzylpiperidin-4-yl)methylidene]-2,4-dihydroxybenzohydrazide] | 138 µM | 13.30 ± 0.83% | moderately permeable | 5.873 | 0.92 ± 0.06 | 0.93 ± 0.09 | 0.95 ± 0.05 | 0.96 ± 0.01 | 1.00 ± 0.02 | 16.63 ± 0.98 μMTE | 89.3% | 13.22 | 19.8 ± 0.95 µM | 75.9% | 262 ± 8.75 µM | 93.22 ± 0.30% | 2570 ± 100 µM | > 300 µM | 154 ± 7.3 µM | –
CC(C)(C)OC(=O)NCC(=O)N/N=C/c1cn(Cc2ccccc2)c2ccccc12 [3m, tert-butyl(2-{(2E)-2-[(1-benzyl-1H-indol-3-yl)methylidene]hydrazinyl}-2-oxoethyl)carbamate] | 7.2 ± 1.8 µM | 32.06 ± 4.70% | – | 4.377 | 0.89 ± 0.09 | 0.89 ± 0.01 | 0.92 ± 0.05 | 0.95 ± 0.01 | 0.96 ± 0.08 | 19.06 ± 1.96 μMTE | 2.01% | – | > 1000 µM | 59.4% | 327 ± 34.3 µM | 36.20 ± 1.40% | > 5000 µM | 109 ± 9.1 µM | 65.4 ± 5.1 µM | 3.05
COc1cc(/C=N/NC(=O)Cc2c[nH]c3ccccc23)ccc1O [3q, N’-[(E)-(4-hydroxy-3-methoxyphenyl)methylidene]-2-(1H-indol-3-yl)acetohydrazide] | 141 ± 8.8 µM | 20.40 ± 0.83% | – | – | 0.76 ± 0.03 | 0.77 ± 0.08 | 0.79 ± 0.03 | 0.84 ± 0.05 | 0.91 ± 0.09 | 15.60 ± 0.90 μMTE | 12.8% | – | > 1000 µM | 13.9% | > 1000 µM | ≥100% | 2380 ± 70 µM | 254 ± 13.7 µM | 170 ± 14 µM | –
COc1ccc(/C=N/NS(=O)(=O)c2ccc(C)cc2)cc1OC [5h, N’-[(E)-(3,4-dimethoxyphenyl)methylidene]-4-methylbenzenesulfonohydrazide] | 42 ± 5.2 µM | 16.94 ± 1.09% | – | – | 0.70 ± 0.09 | 0.82 ± 0.06 | 0.83 ± 0.05 | 0.83 ± 0.06 | 0.80 ± 0.05 | 20.37 ± 0.90 μMTE | 10.5% | – | > 1000 µM | 26.6 ± 5.11% | > 1000 µM | ≥100% | 1850 ± 30 µM | 136 ± 12.6 µM | 160 µM | –
COc1ccc(C(=O)N/N=C/C2CCN(Cc3ccccc3)CC2)cc1 [3d, N’-[(E)-(1-benzylpiperidin-4-yl)methylidene]-4-methoxybenzohydrazide] | 122 ± 9.2 µM | 40.80 ± 3.10% | – | – | 0.85 ± 0.02 | 0.86 ± 0.02 | 0.88 ± 0.05 | 0.85 ± 0.07 | 0.84 ± 0.09 | 15.87 ± 1.41 μMTE | 81.2% | 20.19 | 9.77 ± 0.76 µM | 72.9% | 197 ± 18.7 µM | ≥100% | 1050 ± 40 µM | > 300 µM | 220 µM | –
COc1ccc2[nH]cc(/C=N/NC(=O)Cc3c[nH]c4ccccc34)c2c1 [3n, 2-(1H-indol-3-yl)-N’-[(E)-(5-methoxy-1H-indol-3-yl)methylidene]acetohydrazide] | 108 ± 9.4 µM | 40.62 ± 0.83% | – | 4.084 | 0.85 ± 0.05 | 0.87 ± 0.07 | 0.89 ± 0.04 | 0.90 ± 0.01 | 0.92 ± 0.06 | 14.30 ± 0.56 μMTE | 29.2% | – | > 1000 µM | 73.7% | 21.1 ± 1.48 µM | ≥100% | 770 ± 60 µM | 83.7 ± 8.3 µM | 48.2 ± 6.4 µM | 47.34
O=S(=O)(N/N=C/C1CCN(Cc2ccccc2)CC1)c1ccccc1 [5a, N’-[(E)-(1-benzylpiperidin-4-yl)methylidene]benzenesulfonohydrazide] | 142 ± 13.1 µM | 6.56 ± 0.78% | – | 4.749 | 0.83 ± 0.02 | 0.88 ± 0.08 | 0.89 ± 0.04 | 1.00 ± 0.04 | 1.10 ± 0.05 | 17.48 ± 0.90 μMTE | 77% | – | 163 ± 10.7 µM | 79.4% | 259 ± 4.9 µM | 43.80 ± 0.23% | > 5000 µM | > 300 µM | 157 ± 8.5 µM | –
O=C(Cc1c[nH]c2ccccc12)N/N=C/C1CCN(Cc2ccccc2)CC1 [3a, N’-[(E)-(1-benzylpiperidin-4-yl)methylidene]-2-(1H-indol-3-yl)acetohydrazide] | 129 ± 7.5 µM | 5.74 ± 0.39% | – | 4.420 | 0.87 ± 0.03 | 0.87 ± 0.08 | 0.72 ± 0.07 | 0.72 ± 0.05 | 0.71 ± 0.08 | 15.42 ± 0.74 μMTE | 78.9% | – | 76.5 ± 3.04 µM | 80.4% | 56.5 ± 0.2 µM | – | – | > 300 µM | 138 ± 9.8 µM | 1.35
O=S(=O)(N/N=C/c1c[nH]c2ccc(OCc3ccccc3)cc12)c1ccccc1 [5k] | 135 ± 14 µM | 47.18 ± 1.14% | – | – | 0.80 ± 0.04 | 0.80 ± 0.09 | 0.83 ± 0.05 | 0.84 ± 0.08 | 0.87 ± 0.09 | 22.52 ± 1.29 μMTE | 35.4% | – | > 1000 µM | 4.97% | > 1000 µM | ≥100% | 2570 ± 130 µM | 77.7 ± 6.9 µM | 321 ± 16.2 µM | –
Cc1ccc(S(=O)(=O)N/N=C/c2cn(Cc3ccccc3)c3ccccc23)cc1 [5g, N’-[(E)-(1-benzyl-1H-indol-3-yl)methylidene]-4-methylbenzenesulfonohydrazide] | 92.1 ± 9.3 µM | 45.72 ± 1.38% | – | – | 0.82 ± 0.04 | 0.87 ± 0.09 | 0.88 ± 0.09 | 0.87 ± 0.05 | 0.88 ± 0.03 | 15.87 ± 1.13 μMTE | 2.18% | – | > 1000 µM | 40.6% | > 1000 µM | ≥100% | 2080 ± 100 µM | 135 ± 10.9 µM | 50.7 ± 3.6 µM | –
